In patent US20050119288A1, “Dosing schedule for a novel anticancer agent” (Pfizer Inc, priority 2003, published 2005):

What was measured:
[1] = Body weight and tolerability, FRE/erbB2 study
Description: A 1.15 mg/ml solution of the test compound was infused IV at 550 μl/hr for 2 minute ramped infusions followed by 50 μl/hr for 15 min or 4 hour daily infusions. […] Athymic female mice bearing FRE/erbB2 tumors (˜100 mm^3 in size) were treated with vehicle, the test compound orally or the test compound intravenously. Body weight changes and tumor measurements were obtained at regular intervals (Days 1, 3, 5, and 7). The study was carried out for 7 days.

[2] = tested on: SK-OV-3 tumors; assay: SK-OV-3 xenograft tumor growth in athymic mice; type: in vivo, human; details: for % Growth inhibition / Tumor volume Day 1 (Mean ± SE) / Tumor volume Day 18 (Mean ± SE): PO
Source text: The in vivo anti-tumor activity of the compounds for use in the methods of the present invention can be determined by the amount of inhibition of tumor growth by a test compound relative to a control. The tumor growth inhibitory effects of various compounds can be measured according to the method of Corbett T. H., et al., “Tumor Induction Relationships in Development of Transplantable Cancers of the Colon in Mice for Chemotherapy Assays, with a Note on Carcinogen Structure”, Cancer Res., 35, 2434-2439 (1975) and Corbett T. H., et al., “A Mouse Colon-tumor Model for Experimental Therapy”, Cancer Chemother. Rep. (Part 2)”, 5, 169-186 (1975), with slight modifications. Tumors can be induced in the left flank of mice by subcutaneous (sc) injection of 1-5 million log phase cultured tumor cells suspended in 0.1 ml RPMI 1640 medium. After sufficient time has elapsed for the tumors to become palpable (˜100-150 mm^3 in size/5-6 mm in diameter) the test animals (athymic female mice) are treated with test compound (formulated at a concentration of 10 to 15 mg/ml in 5 Gelucire or 0.5% methyl cellulose) by the intravenous (iv) or oral (po) route of administration once or twice daily for 7 to 29 consecutive days. In order to determine an anti-tumor effect, the tumor is measured in millimeters with a Vernier caliper across two diameters and the tumor size (mm^3) is calculated using the formula: Tumor size (mm^3)=(W×W)/2×L (L=length and W=width), according to the methods of Geran, R. I., et al. “Protocols for Screening Chemical Agents and Natural Products Against Animal Tumors and Other Biological Systems”, Third Edition, Cancer Chemother. Rep., 3, 1-104 (1972). Results are expressed as percent inhibition, according to the formula: Inhibition Growth (%)=[100-{(% Growth of Treated/% Growth of Control)×100}]. The flank site of tumor implantation provides reproducible dose/response effects for a variety of chemotherapeutic agents, and the method of measurement (tumor diameter) is a reliable method for assessing tumor growth rates.
(§1) SK-OV-3 cells obtained from ATCC (Rockville, Md.) were grown in McCoy's medium containing 10% fetal bovine serum and pen/strep. Exponentially growing cells were harvested and inoculated SC (5 million cells/animal) into female athymic mice. The tumor measurements and body weight changes were obtained on days 1, 3, 6, 10, 13 and 18. Tumor volume was calculated by the following formula: Tumor volume (mm^3)═(W×W)/2×L (L=length & W=width). Blood samples (˜50 μl) were isolated at 0.5, 1, 2, 4 and 8 hrs after dosing on day 18 for PK-analysis. Tumors were isolated at 0.5 hr post-dosing on day 18 for PD-analysis by ELISA. The p-erbB2 reduction, tumor volume and body weight changes in control and test compound treated animals are shown below in Table 2.

[3] = Body weight and tolerability, SK-OV-3 study; type: in vivo, mice; details: PO
Description: as §1

## COCC(=O)NC/C=C/c1ccc2ncnc(Nc3ccc(Oc4ccc(C)nc4)c(C)c3)c2c1 [Test Compound, E-2-Methoxy-N-(3-{4-(3-methyl-4-(6-methyl-pyridin-3-yloxy)-phenylamino)-quinazolin-6-yl}-allyl)-acetamide]
[1]; 1.4 mg/kg IV, QD, 15 min/day
  average body weight Day 1: 23 g
  average body weight Day 7: 24 g
[1]; 10.7 mg/kg IV, 4 hr/day
  average body weight Day 1: 22 g
  average body weight Day 7: 22 g
[1]; 25 mg/kg PO, QD
  average body weight Day 1: 21 g
  average body weight Day 7: 22 g
[1]; FRE/erbB2 study, 7 days
  body weight loss or mortality: did not cause any body weight loss or mortality
[2]; 18 days
  tumor growth inhibition, 100 mg/kg BID relative to 200 mg/kg QD: 2 fold
[2]; BID 25 mg/kg (Total Daily Dose = 50 mg/kg), 18 days
  % Growth inhibition: 29%
[2]; BID 25 mg/kg (Total Daily Dose = 50 mg/kg), 18 days, listed as test compound
  % Growth inhibition: Approximately 29%
[2]; BID 25 mg/kg
  Tumor volume Day 1 (Mean ± SE): 93 ± 12 mm^3
  Tumor volume Day 18 (Mean ± SE): 281 ± 42 mm^3
[2]; BID 50 mg/kg (Total Daily Dose = 100 mg/kg), 18 days
  % Growth inhibition: 45%
[2]; BID 50 mg/kg
  Tumor volume Day 1 (Mean ± SE): 94 ± 13 mm^3
  Tumor volume Day 18 (Mean ± SE): 218 ± 38 mm^3
[2]; BID 100 mg/kg (Total Daily Dose = 200 mg/kg), 18 days
  % Growth inhibition: 71%
[2]; BID 100 mg/kg
  Tumor volume Day 1 (Mean ± SE): 94 ± 13 mm^3
  Tumor volume Day 18 (Mean ± SE): 115 ± 24 mm^3
[2]; QD 50 mg/kg, 18 days
  % Growth inhibition: 2%
[2]; QD 50 mg/kg, 18 days, listed as test compound
  % Growth inhibition: non-efficacious
[2]; QD 50 mg/kg
  Tumor volume Day 1 (Mean ± SE): 98 ± 14 mm^3
  Tumor volume Day 18 (Mean ± SE): 390 ± 38 mm^3
[2]; QD 100 mg/kg, 18 days
  % Growth inhibition: 23%
[2]; QD 100 mg/kg
  Tumor volume Day 1 (Mean ± SE): 97 ± 14 mm^3
  Tumor volume Day 18 (Mean ± SE): 306 ± 36 mm^3
[2]; QD 200 mg/kg, 18 days
  % Growth inhibition: 36%
[2]; QD 200 mg/kg
  Tumor volume Day 1 (Mean ± SE): 98 ± 14 mm^3
  Tumor volume Day 18 (Mean ± SE): 254 ± 39 mm^3
[3]; BID 25 mg/kg
  average body weight Day 1: 24 g
  average body weight Day 18: 26 g
[3]; BID 50 mg/kg
  average body weight Day 1: 24 g
  average body weight Day 18: 25 g
[3]; BID 100 mg/kg
  average body weight Day 1: 23 g
  average body weight Day 18: 23 g
[3]; QD 50 mg/kg
  average body weight Day 1: 23 g
  average body weight Day 18: 24 g
[3]; QD 100 mg/kg
  average body weight Day 1: 23 g
  average body weight Day 18: 25 g
[3]; QD 200 mg/kg
  average body weight Day 1: 23 g
  average body weight Day 18: 24 g
[3]; QD or BID, 18 days
  tolerability, body weight loss or animal mortality: well tolerated and there was no body weight loss or animal mortality
